Here are results for 22 compounds from patent publication US20110319379A1, “Substituted Indazole Amides And Their Use As Glucokinase Activators” (priority 2009, published 2011).

This test concerns the target T1, recombinant human glucokinase (Homo sapiens, UniProt P35557).
T1 construct: Full-length glucokinase (beta cell isoform) was His-tagged at the N-terminus and purified by a Ni column followed by size exclusion chromatography as described above; His tag; made in house; host or cells: E. coli BL21(DE3), vector pBCGK
T1 sequence (P35557 1-465): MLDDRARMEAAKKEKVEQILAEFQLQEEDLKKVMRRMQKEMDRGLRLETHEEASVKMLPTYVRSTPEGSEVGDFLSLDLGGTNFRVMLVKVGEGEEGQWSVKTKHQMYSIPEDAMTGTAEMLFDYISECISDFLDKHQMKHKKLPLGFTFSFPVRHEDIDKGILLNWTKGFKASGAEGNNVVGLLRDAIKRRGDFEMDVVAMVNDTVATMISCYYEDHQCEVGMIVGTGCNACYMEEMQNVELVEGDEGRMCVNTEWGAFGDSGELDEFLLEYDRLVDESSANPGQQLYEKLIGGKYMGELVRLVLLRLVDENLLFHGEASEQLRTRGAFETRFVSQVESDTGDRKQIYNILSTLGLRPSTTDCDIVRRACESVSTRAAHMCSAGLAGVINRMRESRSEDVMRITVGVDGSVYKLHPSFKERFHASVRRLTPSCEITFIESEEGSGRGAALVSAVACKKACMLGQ
Nature of the test: Assay 2: Evaluating Activator Potency in a Matrix Assay at Multiple Glucose Concentrations. It counts as biochemical. The conditions noted are these: Assay 2 matrix assay; 16 glucose concentrations; intrinsic EC50 = concentration affording a 50% reduction in the enzyme's Km (for glucose); read-out: Glucokinase EC50. The procedure: Representative compounds of this invention were evaluated in biochemical assays (Assay 1 or Assay 2) to characterize their glucokinase activation properties.
The recombinant human glucokinase protein utilized in both assays was prepared and purified as described below.
BL21(DE3) cells (Invitrogen Corporation, Carlsbad, Calif.) containing pBCGK (C or N H is) vector were grown at 37° C. (in 2XYT) until the OD600 was between 0.6-1.0. Expression was induced by addition of isopropylthiogalactoside to a final concentration of 0.1-0.2 mM to the cells which were then incubated overnight at 23° C. The next day, cells were harvested via centrifugation at 5000 rpm for 15 minutes at 4° C. The cell pellet was stored at −80° C. for future purification.
Beta Cell Glucokinase His-Taq Purification Conditions: A Ni-NTA (Quigan, Germantown, Md.) column (15-50 mL) was used for separation. Two buffers were prepared, 1) a lysis/nickel equilibration and wash buffer and 2) a nickel elution buffer. The lysis/equilibration/wash buffer was prepared as such: 25 mM HEPES buffer at pH 7.5, 250 mM NaCl, 20 mM imidazole, and 14 mM β-mercaptoethanol as final concentrations. The elution buffer was prepared as such: 25 mM HEPES at pH 7.5, 250 mM NaCl, 400 mM imidazole, and 14 mM β-mercaptoethanol as final concentrations. The buffers were each filtered with a 0.22 μm filter prior to use. The cell pellet (1 L culture) was resuspended in 300 mL of the lysis/equilibration buffer. The cells were then lysed (3 times) with a Microfluidics Model 110Y microfluidizer (Microfluidics Corporation, Newton, Mass.). The slurry was centrifuged with a Beckman Coulter Model LE-80K ultracentrifuge (Beckman Coulter, Fullerton, Calif.) at 40,000 rpm for 45 minutes at 4° C. The supernatant was transferred to a chilled flask. A volume of 20 μl was saved for gel analysis. A Pharmacia AKTA (GMI, Inc., Ramsey, Minn.) purification system was used for separation. The prime lines were purged with lysis/equilibration buffer. The Ni-NTA column was equilibrated with 200 mL of the lysis/equilibration buffer at a flow rate of 5 mL/minute. The supernantant was loaded over the column at 4 mL/minute and the flow-through was collected in a flask. The unbound proteins were washed with lysis/equilibration buffer at a flow rate of 5 mL/minute until the ultraviolet reaches baseline. The protein was then eluted from the column with the imidazole elution buffer via imidazole gradient 20 mM to 400 mM over 320 mL. The column was then stripped of any additional protein with 80 mL of the elution buffer. The elution fractions were each 8 mL, for a total yield of 50 samples. Fractions were analyzed by sodium dodecyl sulfate polyacrylamide (SDS-PAGE) and the fractions containing protein of interest were pooled and concentrated to 10 mL using ultrafiltration cell with a 10,000 molecular weight cut-off (MWCO) Millipore membrane (Sigma-Aldrich, St. Louis, Mo.) under nitrogen gas (60 psi). Protein was further purified by size exclusion chromatography (SEC) using a […] (320 mL) (Amersham Pharmacia, Uppsala, Sweden). SEC was equilibrated with 450 mL sizing buffer containing 25 mM HEPES pH 7.0, 50 mM NaCl, and 5 mM dithiothreitol. Concentrated protein was then loaded over SEC and elution with 400 mL sizing buffer was performed overnight at 0.5 mL/minute. The elution fractions were 5 mL each. The fractions were analyzed by SDS-PAGE and protein containing fractions were pooled. Concentration was measured using Bradford Assay/BSA Standard. Purified protein was stored in small aliquots at −80° C.
Assay 2: Evaluating Activator Potency in a Matrix Assay at Multiple Glucose Concentrations
Utilizing an adaptation of this method, representative compounds of the current invention were evaluated at 22 different concentrations and 16 different glucose concentrations in a coupled enzyme assay system that detects glucokinase activity via depletion of β-NADH.
For `CC(C)n1cc2c(Oc3cnc(C(=O)N(C)C)cn3)cc(C(=O)Nc3ccn(C)n3)cc2n1` [Example 1BV, 4-(5-(dimethylcarbamoyl)pyrazin-2-yloxy)-2-isopropyl-N-(1-methyl-1H-pyrazol-3-yl)-2H-indazole-6-carboxamide], the EC50 came to 1590 nM.
Under `Cn1cc2c(Oc3cnc(C(=O)N4CCCC4)cn3)cc(C(=O)Nc3cnn(C)n3)cc2n1` [Example 1BW, 2-methyl-N-(2-methyl-2H-1,2,3-triazol-4-yl)-4-(5-(pyrrolidine-1-carbonyl)pyrazin-2-yloxy)-2H-indazole-6-carboxamide] stands 4640 nM.
Regarding `CCn1cc2c(Oc3cnc(C(=O)N4CCC4)cn3)cc(C(=O)Nc3cnn(C)n3)cc2n1` [Example 1BX, 4-(5-(azetidine-1-carbonyl)pyrazin-2-yloxy)-2-ethyl-N-(2-methyl-2H-1,2,3-triazol-4-yl)-2H-indazole-6-carboxamide], the EC50 was found to be 15100 nM.
Take `CC(C)n1cc2c(Oc3cnc(C(=O)N4CCC4)cn3)cc(C(=O)Nc3cnn(C)n3)cc2n1` [Example 1BY, 4-(5-(azetidine-1-carbonyl)pyrazin-2-yloxy)-2-isopropyl-N-(2-methyl-2H-1,2,3-triazol-4-yl)-2H-indazole-6-carboxamide]: the EC50 was found to be 17500 nM.
For `CCn1cc2c(Oc3cnc(C(=O)N(C)C)cn3)cc(C(=O)Nc3cnn(C)n3)cc2n1` [Example 1BZ, 4-(5-(dimethylcarbamoyl)pyrazin-2-yloxy)-2-ethyl-N-(2-methyl-2H-1,2,3-triazol-4-yl)-2H-indazole-6-carboxamide] the value was 25100 nM; for `CCn1cc2c(Oc3ccc(S(C)(=O)=O)cc3)cc(C(=O)Nc3cnn(C)n3)cc2n1` [Example 1CA, 2-ethyl-4-[4-(methylsulfonyl)phenoxy]-N-(2-methyl-2H-1,2,3-triazol-4-yl)-2H-indazole-6-carboxamide], 8520 nM; for `CCn1cc2c(Oc3ccc(S(C)(=O)=O)cc3)cc(C(=O)Nc3cnc(C)cn3)cc2n1` [Example 1CB, 2-ethyl-N-(5-methylpyrazin-2-yl)-4-[4-(methylsulfonyl)phenoxy]-2H-indazole-6-carboxamide], 537 nM.
As to `CCn1cc2c(Oc3ccc(S(C)(=O)=O)cc3)cc(C(=O)Nc3ccn(C)n3)cc2n1` [Example 1CC, 2-ethyl-N-(1-methyl-1H-pyrazol-3-yl)-4-[4-(methylsulfonyl)phenoxy]-2H-indazole-6-carboxamide], the EC50 stood at 1210 nM.
Under `CCn1cc2c(Oc3ccc(S(C)(=O)=O)cc3)cc(C(=O)Nc3ccc(C(N)=O)cn3)cc2n1` [Example 1CD, N-(5-carbamoylpyridin-2-yl)-2-ethyl-4-[4-(methylsulfonyl)phenoxy]-2H-indazole-6-carboxamide] stands 261 nM.
For `CCn1cc2c(Oc3ccc(S(C)(=O)=O)cc3)cc(C(=O)Nc3ccc(CC(N)=O)cn3)cc2n1` [Example 1CE, N-[5-(2-amino-2-oxoethyl)pyridin-2-yl]-2-ethyl-4[4-(methylsulfonyl)phenoxy]-2H-indazole-6-carboxamide] the value was 558 nM.
As for `CCn1cc2c(Oc3ccc(S(C)(=O)=O)cc3)cc(C(=O)Nc3ccn(CC(N)=O)n3)cc2n1` [Example 1CG, N-[1-(2-amino-2-oxoethyl)-1H-pyrazol-3-yl]-2-ethyl-4-[4-(methylsulfonyl)phenoxy]-2H-indazole-6-carboxamide], the EC50 was 1490 nM.
For `CCn1cc2c(Oc3ccc(S(C)(=O)=O)cc3)cc(C(=O)Nc3ccc(F)cn3)cc2n1` [Example 1CI, 2-ethyl-N-(5-fluoropyridin-2-yl)-4-[4-(methylsulfonyl)phenoxy]-2H-indazole-6-carboxamide] the value was 714 nM; for `Cn1cc(NC(=O)c2cc(Oc3ccc(S(C)(=O)=O)cc3)c3cn(C)nc3c2)nn1` [Example 1CJ, 2-methyl-4-[4-(methylsulfonyl)phenoxy]-N-(1-methyl-1H-1,2,3-triazol-4-yl)-2H-indazole-6-carboxamide], 282 nM; for `CCn1cc2c(Oc3ccc(S(C)(=O)=O)cc3)cc(C(=O)Nc3ccc(C(=O)OC)cn3)cc2n1` [Example 1CK, methyl 6-[({2-ethyl-4-[4-(methylsulfonyl)phenoxy]-2H-indazol-6-yl}carbonyl)amino]nicotinate], 396 nM.
Regarding `CCn1cc2c(Oc3ccc(S(C)(=O)=O)cc3)cc(C(=O)Nc3ncns3)cc2n1` [Example 1CL, 2-ethyl-4-[4-(methylsulfonyl)phenoxy]-N-1,2,4-thiadiazol-5-yl-2H-indazole-6-carboxamide], the EC50 was 919 nM.
For `CCn1cc2c(Oc3cnc(NC(C)=O)cn3)cc(C(=O)Nc3ccc(C)cn3)cc2n1` [Example 1CM, 4-(5-acetamidopyrazin-2-yloxy)-2-ethyl-N-(5-methylpyridin-2-yl)-2H-indazole-6-carboxamide], the EC50 came to 2450 nM.
Under `CC(=O)N(C)c1cnc(Oc2cc(C(=O)Nc3ccc(C)cn3)cc3nn(C)cc23)cn1` [Example 1CN, 2-methyl-4-(5-(N-methylacetamido)pyrazin-2-yloxy)-N-(5-methylpyridin-2-yl)-2H-indazole-6-carboxamide] stands 2320 nM.
As for `CCn1cc2c(Oc3cnc(C(N)=O)cn3)cc(C(=O)Nc3ccc(C)cn3)cc2n1` [Example 1CO, 4-(5-carbamoylpyrazin-2-yloxy)-2-ethyl-N-(5-methylpyridin-2-yl)-2H-indazole-6-carboxamide], the EC50 was 1880 nM.
Under `CCn1cc2c(Oc3cnc(C(=O)N4CCOCC4)cn3)cc(C(=O)Nc3ccc(C)cn3)cc2n1` [Example 1CP, 2-ethyl-N-(5-methylpyridin-2-yl)-4-(5-(morpholine-4-carbonyl)pyrazin-2-yloxy)-2H-indazole-6-carboxamide] stands 2280 nM.
Under `CCn1cc2c(Oc3ccc(S(N)(=O)=O)cc3)cc(C(=O)Nc3ccn(C)n3)cc2n1` [Example 1CQ, 4-[4-(aminosulfonyl)phenoxy]-2-ethyl-N-(1-methyl-1H-pyrazol-3-yl)-2H-indazole-6-carboxamide] stands 2880 nM; under `CCn1cc2c(Oc3ccc(S(N)(=O)=O)cc3)cc(C(=O)Nc3cnc(C)cn3)cc2n1` [Example 1CR, 4-[4-(aminosulfonyl)phenoxy]-2-ethyl-N-(5-methylpyrazin-2-yl)-2H-indazole-6-carboxamide], 586 nM.
With `CCn1cc2c(Oc3ccc(S(N)(=O)=O)cc3)cc(C(=O)Nc3cnc(OC)cn3)cc2n1` [Example 1CS, 4-[4-(aminosulfonyl)phenoxy]-2-ethyl-N-(5-methoxypyrazin-2-yl)-2H-indazole-6-carboxamide], the EC50 stood at 418 nM.

As a reminder, the EC50 is the concentration that produces a half-maximal response.
